In ChEMBL document CHEMBL1201862, “PubChem BioAssay data set” (2004):
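Interpolation was linear, between the two tested concentrations surrounding the appropriate level; five concentrations were tested over 48 hours in 96-well plates. Abbreviation: GI50, concentration required for 50% inhibition of growth.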 Activity calls are given as the source filed them. Rule as the data show it: active = GI50 up to about 1.1 µM and inactive = higher.

What was measured:
Assay in all cases: NCI tumour cell line growth inhibition, 48 h
RPMI-8226 = test system: RPMI-8226
SK-MEL-28 = test system: SK-MEL-28
SF-539 = test system: SF-539
LXFL 529 = test system: LXFL 529
K562 = test system: K562
LOX IMVI = test system: LOX IMVI
HCT-15 = test system: HCT-15
OVCAR-8 = test system: OVCAR-8
NCI-H226 = test system: NCI-H226
A498 = test system: A498
SNB-19 = test system: SNB-19
SF-268 = test system: SF-268
SK-OV-3 = test system: SK-OV-3
U-251 = test system: U-251
SNB-75 = test system: SNB-75
UACC-62 = test system: UACC-62
HOP-92 = test system: HOP-92

| SMILES | GI50 (RPMI-8226) | GI50 (SK-MEL-28) | GI50 (SF-539) | GI50 (LXFL 529) | GI50 (K562) | GI50 (LOX IMVI) | GI50 (HCT-15) [µM] | GI50 (OVCAR-8) | GI50 (NCI-H226) | GI50 (A498) | GI50 (SNB-19) | GI50 (SF-268) | GI50 (SK-OV-3) | GI50 (U-251) | GI50 (SNB-75) | GI50 (UACC-62) | GI50 (HOP-92) |
| --- | --- | --- | --- | --- | --- | --- | --- | --- | --- | --- | --- | --- | --- | --- | --- | --- | --- |
| O=[N+]([O-])c1cccnc1S(=O)(=O)c1ccccc1 | 8.71 µM (inactive) | 20 µM (inactive) | 11.3 µM (inactive) | 2.4 µM (inactive) | 3.45 µM (inactive) | 4.46 µM (inactive) | 7.55 | 13.8 µM (inactive) | 15.8 µM (inactive) | 22.1 µM (inactive) | 19.8 µM (inactive) | 10.5 µM (inactive) | 20.5 µM (inactive) | 8.95 µM (inactive) | 19.9 µM (inactive) | 11.6 µM (inactive) | 1.97 µM (inactive) |
| OC1=CN=C(c2ccccc2)Oc2ccccc21 | > 100 µM (inactive) | > 100 µM (inactive) | 19 µM (inactive) | > 100 µM (inactive) | > 100 µM (inactive) | > 100 µM (inactive) | > 100 | > 100 µM (inactive) | 33 µM (inactive) | > 100 µM (inactive) | 42.5 µM (inactive) | 41.4 µM (inactive) | > 100 µM (inactive) | > 100 µM (inactive) | 30.7 µM (inactive) | > 100 µM (inactive) | > 100 µM (inactive) |
| O=C(CC1=Nc2nnc(CCCCCCCc3nnc4n3C(=O)C(CC(=O)c3ccccc3)=N4)n2C1=O)c1ccccc1 | > 100 µM (inactive) | > 100 µM (inactive) | > 100 µM (inactive) | > 100 µM (inactive) | > 100 µM (inactive) | > 100 µM (inactive) | > 100 | > 100 µM (inactive) | > 100 µM (inactive) | > 100 µM (inactive) | > 100 µM (inactive) | > 100 µM (inactive) | > 100 µM (inactive) | > 100 µM (inactive) | > 100 µM (inactive) | > 100 µM (inactive) | > 100 µM (inactive) |
| C=C=C(CC)C(C(=O)OC)N(CC)CC (stereo not drawn) | > 100 µM (inactive) | > 100 µM (inactive) | > 100 µM (inactive) | > 100 µM (inactive) | > 100 µM (inactive) | > 100 µM (inactive) |  | > 100 µM (inactive) | > 100 µM (inactive) | > 100 µM (inactive) | > 100 µM (inactive) | > 100 µM (inactive) | > 100 µM (inactive) | > 100 µM (inactive) | > 100 µM (inactive) | > 100 µM (inactive) | > 100 µM (inactive) |
| O=C1[C@@H]2C(c3ccncc3)=NO[C@@H]2C(=O)N1c1ccc(Cc2ccc(N3C(=O)[C@H]4C(c5ccncc5)=NO[C@H]4C3=O)cc2)cc1 | > 100 µM (inactive) | > 100 µM (inactive) | > 100 µM (inactive) | 29.3 µM (inactive) | > 100 µM (inactive) | > 100 µM (inactive) | > 100 | > 100 µM (inactive) | 73.8 µM (inactive) | > 100 µM (inactive) |  | > 100 µM (inactive) | > 100 µM (inactive) | > 100 µM (inactive) | > 100 µM (inactive) | > 100 µM (inactive) | > 100 µM (inactive) |
| O=C(Nc1ccn(CCI)c(=O)n1)c1ccccc1 | > 100 µM (inactive) | > 100 µM (inactive) | > 100 µM (inactive) | > 100 µM (inactive) | > 100 µM (inactive) | > 100 µM (inactive) | > 100 | > 100 µM (inactive) | > 100 µM (inactive) | > 100 µM (inactive) |  | > 100 µM (inactive) | > 100 µM (inactive) | > 100 µM (inactive) | > 100 µM (inactive) | > 100 µM (inactive) | > 100 µM (inactive) |
| CC(O)C(N/C=C1/N=C(c2ccccc2)OC1=O)C(=O)O (stereo not drawn) | > 100 µM (inactive) | > 100 µM (inactive) | > 100 µM (inactive) | > 100 µM (inactive) | > 100 µM (inactive) | > 100 µM (inactive) | 10 | > 100 µM (inactive) | > 100 µM (inactive) | > 100 µM (inactive) | > 100 µM (inactive) | > 100 µM (inactive) | > 100 µM (inactive) | > 100 µM (inactive) | > 100 µM (inactive) | > 100 µM (inactive) | > 100 µM (inactive) |
| CSc1nc(O)c2cn(Cc3ccccc3)nc2n1 | > 100 µM (inactive) | > 100 µM (inactive) | > 100 µM (inactive) | 58.6 µM (inactive) | 77.8 µM (inactive) | > 100 µM (inactive) | > 75.3 | > 100 µM (inactive) | > 100 µM (inactive) | > 100 µM (inactive) | > 100 µM (inactive) | > 100 µM (inactive) | > 100 µM (inactive) | > 100 µM (inactive) | > 86.1 µM (inactive) | > 100 µM (inactive) | 71.6 µM (inactive) |
